Series [1] deals with Multidrug resistance protein 1a (Rattus norvegicus) (UniProt Q6PSM0). The experiment in a line: TP_TRANSPORTER: Northern blot in vitro, nonparenchymal ral liver epithelial cells. Format: functional. The conditions noted are these: Epithelial cell.
Series [2] concerns the target ATP-dependent translocase ABCB1 (Rattus norvegicus, UniProt P43245). The series is described as follows: TP_TRANSPORTER: RT-PCR in vitro, nonparenchymal rat liver epithelial cells. Format: functional, tissue-based. The conditions noted are these: epithelial cell.
Series [3] has as its target Multidrug resistance protein 1a (Rattus norvegicus) (UniProt Q6PSM0). The experiment in a line: TP_TRANSPORTER: Western in vitro, nonparenchymal rat liver epithelial cells. It is filed as functional, tissue-based. The conditions noted are these: Epithelial cell.

Chain of Multidrug resistance protein 1a (Rattus norvegicus) (Q6PSM0 as listed by the source): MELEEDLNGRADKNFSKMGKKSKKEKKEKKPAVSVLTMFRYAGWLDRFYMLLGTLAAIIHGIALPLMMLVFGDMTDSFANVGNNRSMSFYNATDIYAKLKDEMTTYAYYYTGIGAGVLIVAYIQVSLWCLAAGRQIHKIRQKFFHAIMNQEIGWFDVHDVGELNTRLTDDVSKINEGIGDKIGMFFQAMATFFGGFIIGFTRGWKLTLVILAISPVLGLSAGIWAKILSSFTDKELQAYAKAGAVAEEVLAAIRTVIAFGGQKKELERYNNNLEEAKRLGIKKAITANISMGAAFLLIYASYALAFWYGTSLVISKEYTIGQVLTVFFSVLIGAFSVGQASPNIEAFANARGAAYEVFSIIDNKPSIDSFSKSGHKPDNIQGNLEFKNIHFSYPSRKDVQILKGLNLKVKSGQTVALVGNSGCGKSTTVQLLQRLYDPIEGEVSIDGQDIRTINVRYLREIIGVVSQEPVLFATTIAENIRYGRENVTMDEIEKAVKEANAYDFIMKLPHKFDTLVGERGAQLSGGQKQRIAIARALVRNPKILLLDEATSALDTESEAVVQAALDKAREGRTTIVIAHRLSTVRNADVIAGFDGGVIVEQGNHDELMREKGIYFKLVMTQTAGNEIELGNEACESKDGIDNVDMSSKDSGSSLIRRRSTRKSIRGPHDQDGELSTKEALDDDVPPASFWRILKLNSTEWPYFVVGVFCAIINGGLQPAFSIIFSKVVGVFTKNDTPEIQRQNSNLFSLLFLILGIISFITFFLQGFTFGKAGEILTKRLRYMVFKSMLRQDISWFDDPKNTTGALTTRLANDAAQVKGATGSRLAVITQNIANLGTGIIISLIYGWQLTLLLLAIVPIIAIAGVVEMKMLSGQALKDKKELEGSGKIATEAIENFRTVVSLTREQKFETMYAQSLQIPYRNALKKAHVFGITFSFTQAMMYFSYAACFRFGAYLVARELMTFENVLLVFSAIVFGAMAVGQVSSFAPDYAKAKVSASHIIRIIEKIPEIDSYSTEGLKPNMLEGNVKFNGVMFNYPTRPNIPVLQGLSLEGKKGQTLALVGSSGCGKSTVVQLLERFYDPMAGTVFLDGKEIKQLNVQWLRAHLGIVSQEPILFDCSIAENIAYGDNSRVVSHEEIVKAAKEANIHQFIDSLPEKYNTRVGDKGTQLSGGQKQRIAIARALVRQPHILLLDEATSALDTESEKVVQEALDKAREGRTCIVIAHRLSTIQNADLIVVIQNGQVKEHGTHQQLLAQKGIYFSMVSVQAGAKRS
Chain of ATP-dependent translocase ABCB1 (P43245 whole entry): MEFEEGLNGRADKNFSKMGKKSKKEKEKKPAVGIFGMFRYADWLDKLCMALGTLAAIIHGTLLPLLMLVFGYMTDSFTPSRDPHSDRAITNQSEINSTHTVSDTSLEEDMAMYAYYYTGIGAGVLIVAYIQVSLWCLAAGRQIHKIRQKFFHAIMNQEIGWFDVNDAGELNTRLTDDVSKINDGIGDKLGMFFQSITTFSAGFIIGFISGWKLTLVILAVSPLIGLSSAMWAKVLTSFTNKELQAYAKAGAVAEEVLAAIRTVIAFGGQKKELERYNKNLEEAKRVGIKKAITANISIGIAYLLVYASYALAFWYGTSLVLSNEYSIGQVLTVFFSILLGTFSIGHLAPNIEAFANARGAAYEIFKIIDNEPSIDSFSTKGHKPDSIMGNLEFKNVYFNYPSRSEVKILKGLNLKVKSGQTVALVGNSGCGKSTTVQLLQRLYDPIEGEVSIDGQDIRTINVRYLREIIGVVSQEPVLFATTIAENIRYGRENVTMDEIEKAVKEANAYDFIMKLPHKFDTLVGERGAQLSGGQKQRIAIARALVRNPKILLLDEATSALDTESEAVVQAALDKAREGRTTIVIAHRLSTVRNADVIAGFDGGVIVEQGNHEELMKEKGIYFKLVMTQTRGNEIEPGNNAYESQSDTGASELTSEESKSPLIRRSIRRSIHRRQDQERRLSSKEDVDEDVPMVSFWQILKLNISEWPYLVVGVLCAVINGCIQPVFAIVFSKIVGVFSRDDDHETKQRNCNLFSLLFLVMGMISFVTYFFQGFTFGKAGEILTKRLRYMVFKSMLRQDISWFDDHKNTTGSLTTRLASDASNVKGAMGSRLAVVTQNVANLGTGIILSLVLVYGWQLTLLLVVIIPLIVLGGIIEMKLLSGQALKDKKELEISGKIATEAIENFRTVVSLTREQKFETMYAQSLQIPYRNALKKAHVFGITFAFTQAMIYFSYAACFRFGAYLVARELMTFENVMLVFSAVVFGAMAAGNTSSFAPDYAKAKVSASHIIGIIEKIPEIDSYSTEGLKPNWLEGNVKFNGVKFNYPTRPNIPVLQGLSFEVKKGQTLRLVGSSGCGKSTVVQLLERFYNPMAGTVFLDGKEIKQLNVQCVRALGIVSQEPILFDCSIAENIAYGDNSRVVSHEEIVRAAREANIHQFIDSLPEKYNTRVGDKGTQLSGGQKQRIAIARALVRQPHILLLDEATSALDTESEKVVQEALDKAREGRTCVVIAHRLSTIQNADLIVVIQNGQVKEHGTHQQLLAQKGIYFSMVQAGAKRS

Take `C[C@@H]1C[C@@H]([C@H](O)CC2CC(=O)NC(=O)C2)C(=O)[C@@H](C)C1`: in series [1], the Activity entry was “inducer [+]”.

`c1ccc2c(c1)cc1ccc3cccc4ccc2c1c34`: the Activity entry in series [1] was “inducer [+]”.

Consider `Cc1ccc2cc3c(ccc4ccccc43)c3c2c1CC3` [3-METHYLCHOLANTHRENE], for which the Activity entry in series [2] and in series [3] was “inducer [+]” in each case.
